Measurements taken from US9296716B2, “Androgen receptor ligands” (THE PROVOST, FELLOWS, FOUNDATION SCHOLARS, & THE OTHER …, priority 2011, dated 2016).
Read-outs that look alike come from different tables or passages of the source.

Legend:
[1] = target: T1, Glucocorticoid Receptor (GR) LBD (Homo sapiens, UniProt P04150); experiment: TR-FRET SRC1-4 coactivator recruitment assay, GR LBD; assay type: biochemical; details: Dexamethasone = EC80
T1 construct: purchased Invitrogen PV4683
T1 sequence (P04150 524-758 limits assumed): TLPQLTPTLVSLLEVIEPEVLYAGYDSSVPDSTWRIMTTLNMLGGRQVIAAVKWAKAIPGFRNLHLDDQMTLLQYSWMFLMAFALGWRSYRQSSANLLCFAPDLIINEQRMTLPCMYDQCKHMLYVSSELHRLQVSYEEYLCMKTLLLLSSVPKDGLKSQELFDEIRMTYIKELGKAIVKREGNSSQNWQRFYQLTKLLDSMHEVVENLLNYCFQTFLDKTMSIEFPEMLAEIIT
Description: (§1) Compound binding affinities for Progesterone Receptor (PR), Glucocorticoid Receptor (GR), Estrogen Receptor alpha and Estrogen Receptor beta were determined using TR-FRET (Table 2).
Dexamethasone bound receptor recruitment of the fluorescently labelled SCR1-4 coactivator was unimpaired at screening concentrations up to 100 μM for all the diarylhydrazides evaluated (FIG. 5).
(§2) Lanthascreen TR-FRET AR Coactivator Assay kit (Invitrogen, cat no. PV4381) was used to screen for potential coactivator disruptors.
(§3) TR FRET values were calculated at 10 flashes per well, using a delay time of 100 μs and integration time 200 μs as recommended by the Invitrogen assay guidelines. […] A serial dilution of compounds was firstly prepared in 100×DMSO (Sigma-Aldrich) starting from the maximum desired concentration to achieve a 12 point range concentration using 96-well polypropylene plates (Nalgene Nunc, Rochester, N.Y.). Each 100× solution was diluted to 2× concentration with TR-FRET co-regulator buffer A (Invitrogen proprietary buffer), yielding a final concentration of 1% DMSO in each well.
(§4) D11-FxxLF and Tb antibody were premixed in light protecting vials prior to use. A final concentration of DTT 5 mM was used in the assay buffer in order to prevent protein degradation. All plates (agonist and antagonist mode) were incubated between 2 and 4 hours at room temperature protected from light prior to TR-FRET measurement. […] Data was fitted using the sigmoidal dose response (variable slope) available from Graphpad Prism 5. Y=Bottom+(Top-Bottom)/(1+10^((Log IC50−X)*HillSlope))
(§5) The same procedure was used for AR T877A (Invitrogen cat no. PV4667), PR (Invitrogen cat no. PV4666), ER-α (Invitrogen cat no. PV4544), ER-β (Invitrogen cat no. PV4541) and GR (Invitrogen cat no. PV4683). The assay was adapted to exclude possible non-specific aggregation mechanism of inhibition by adding very low concentration of detergent Triton X-100 (0.001%) to the assay buffer following the Shoichet review guidelines [Shoichet BK (2006) Screening in a spirit haunted world. Drug Discov Today 11:607-615].

[2] = target: T2, Progesterone Receptor (PR) LBD (Homo sapiens, UniProt P06401); experiment: TR-FRET SRC1-4 coactivator recruitment assay, PR LBD; assay type: biochemical; details: Progesterone = EC80
T2 construct: purchased Invitrogen PV4666
T2 sequence (P06401 679-913 limits assumed): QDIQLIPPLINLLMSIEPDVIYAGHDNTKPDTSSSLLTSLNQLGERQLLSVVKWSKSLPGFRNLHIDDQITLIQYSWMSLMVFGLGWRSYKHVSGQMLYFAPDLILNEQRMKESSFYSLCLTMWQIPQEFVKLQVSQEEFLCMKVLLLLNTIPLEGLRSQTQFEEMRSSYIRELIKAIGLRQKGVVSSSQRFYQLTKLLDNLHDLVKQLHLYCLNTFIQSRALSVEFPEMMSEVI
Description: as §1, §2, §3, §4, §5

AR-LBD wt = target: T3, AR-LBD wt (Homo sapiens, UniProt P10275); experiment: Lanthascreen TR-FRET AR coactivator (D11-FxxLF) assay, AR-LBD wt; assay type: biochemical; details: for IC50: TR-FRET, D11-FxxLF peptide, DHT = EC80
T3 sequence (P10275 669-900 limits assumed): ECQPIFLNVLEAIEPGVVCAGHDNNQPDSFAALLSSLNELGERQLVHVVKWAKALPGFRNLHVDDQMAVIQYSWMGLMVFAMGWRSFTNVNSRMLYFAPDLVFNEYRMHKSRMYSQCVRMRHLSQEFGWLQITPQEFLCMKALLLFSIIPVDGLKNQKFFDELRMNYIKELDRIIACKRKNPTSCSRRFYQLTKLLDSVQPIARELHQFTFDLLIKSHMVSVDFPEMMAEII

[3] = system: PSA expression in 22Rv1 cells; experiment: PSA ELISA, secreted PSA in 22Rv1 cells; assay type: cell-based
Description: To investigate compounds effect on PSA expression, a common biomarker for prostate cancer, we utilized a human PSA ELISA assay.
(§6) We repeated the same experiment in 22Rv1 cell line.
Secreted levels of prostate specific antigen were evaluated with a commercially available kit (Quantikine Human Kallikrein 3/PSA Immunoassay, R&D systems). The assay was performed following manufacturer's guidelines. In brief, 50 μl of standards and cell culture samples were added to pre-coated wells containing assay diluent RD1W (R&D systems) and incubated for two hours at room temperature. Unbound material was washed several times and 200 μl of Horseradish Peroxidase (HRP) labeled PSA conjugate antibody was added to each well and further incubated for two hours at room temperature. Wells were washed and treated with colored substrate (Tetramethylbenzidine) for an additional 30 minutes, after which 50 μl of stop solution (Sulphuric Acid 2N) was added per well and absorbance (450 nm with correction at 540 nm) was read with a plate reader within 30 minutes (Versamax).

22Rv1 cells = experiment: 22Rv1 cell proliferation assay; assay type: cell-based
Description: Thus, inhibition on cell proliferation by the compounds could not be evaluated (FIG. 14)
as §6
For cell viability (end point) assays LNCaP, PC-3 and PWR-1E cells were seeded at 2.5*10^4/ml density in 200 μl volume of a 96-well plate in triplicate and incubated for 24 hours prior testing. Test compounds were included at different concentrations to achieve a final concentration of 0.5% DMSO in each well. Effect of 0.5% DMSO on cell-viability was also evaluated. Cell viability was assessed after 24 hours of treatment using 10% Alamar Blue reagent (Invitrogen) for each well. Cell viability was monitored by the reduction of resazurin, a blue, cell-permeable and non-toxic compound, to resorufin, a red and highly fluorescent product. Viable cells continuously convert resazurin to resorufin, increasing the overall colour and fluorescence of the media surrounding cells. Fluorescence intensity can be quantitatively determined with a fluorescence microplate reader at excitation/emission 544 nm/590 nm (Spectramax Gemini). […] A control for the vehicle was included to ensure no effect on viability could be detected. […] Supernatants were collected after five days for secreted PSA levels evaluation and cell proliferation was assessed for the same plate using Alamar Blue in order to exclude non-specific effects due to toxicity issues.

COc1cc(/C=N/NC(=O)c2cc3c(ccc4ccccc43)o2)cc(OC)c1O [MDG506]
effect on SRC1-4 recruitment by GR LBD ([1]; 100 μM to 12.5 μM or single point 100 μM): do not affect | IC50 ([1]; TR-FRET, ± SEM (n = 6), read-out: NR LBDs IC50 (μM) GR): > 100 µM | effect on PR recruitment of fluorescent labelled SRC1-4 ([2]; 100 μM to 45 nM): partially inhibit | IC50 ([2]; TR-FRET, ± SEM (n = 6), read-out: NR LBDs IC50 (μM) PR): 27.7 ± 7.3 µM | type of AR antagonism (full / partial) (AR-LBD wt; TR-FRET in agonist and antagonist mode): full AR antagonists | IC50 (AR-LBD wt; read-out: AR (wt)): 26.3 ± 3.8 µM | IC50 (AR-LBD wt; read-out: Activity (AR wt TR-FRET)): 26.3 ± 3.8 µM | DHT stimulated PSA expression ([3]; 22Rv1): no effect could be seen | PSA expression in absence of androgens ([3]; 22Rv1): does not induce | CPA stimulated PSA expression ([3]; 22Rv1, MDG506 at different concentrations): reduced | cell proliferation in absence of androgens (22Rv1 cells): does not induce
